What was measured:
[1] = tested on: A549 cells; assay: Intracellular accumulation, fluorescence microscopy; assay type: cell-based, human; conditions: A549, 5 μM, 24 h
Method: It has been reported that the cellular uptake efficacy of a compound is affected by many factors, such as lipophilicity. Synthesized complexes indicate blue fluorescence. Thus, their detection using fluorescence microscopy is possible. For this purpose, A549 (human lung adenocarcinoma epithelial) cells were incubated with Ir(III) complexes (5 μM) for 24 h and analyzed. Phalloidin was co-incubated with Ir(III) complexes to determine subcellular localization further.
The intracellular accumulation of the compound was assessed in the A549 cell line. Before imaging, cells were seeded on microscopic slides at a density of 1×10^5 cells and were kept at 37 °C with 5% CO2 humidified atmosphere for 24 h. After being washed with fresh medium, the cells were incubated with 5 μM solution of tested compound in cell medium for 24 h. Next, after being washed with HBSS, the cells were fixed for 10 min in 3.8% PFA and incubated with specific intracellular organelle probes: 200 nM Mito-Tracker green, 1 μg/mL Quinacrine, and 0.25 nM of PhalloidinAtto 488 (Molecular Probes, Invitrogen Life Technologies; Thermo Fisher Scientific, Waltham, MA, USA), diluted in HBSS buffer. After 30 min incubation, at 37 °C, in the dark, the cells were washed with HBSS two times, and the slide was transferred to the microscope stage and cells were visualized under a fluorescent Zeiss Axio Observer microscope. Registered images were analyzed with the Zeiss ZEN software.

[2] = tested on: A549 cells; assay: MTT cytotoxicity assay, A549; assay type: cell-based, human
Method: (§1) Moreover, to investigate the activity of synthesized complexes as potential anticancer agents, their cytotoxicity toward a series of human cancer cell lines and a non-cancer cell line (HaCaT) was evaluated using the MTT assay. […] In addition, we also determined the cytotoxic activity of free ligands toward selected cancer cells. […] However, this effect depends on the cell line. […] The best values of cytotoxic activity of compounds have been obtained after 72 h of cell incubation. Additionally, synthesized complexes had high sensitivity to A549 cells, so this cell line was selected as the research subject for antitumor activity.
MCF7 cell line (human breast adenocarcinoma, morphology: epithelial-like, ATCC: HTB-22) and A549 cell line (human lung adenocarcinoma, morphology: epithelial, ATCC: CCL-185); HaCaT (human keratinocyte) were cultured in Dulbecco’s Modified Eagle’s Medium (DMEM, Corning, Poland) with phenol red, supplemented with 10% fetal bovine serum (FBS) and with 1% streptomycin/penicillin. Du-145 cell line (human prostate carcinoma); derived from metastatic site: brain was cultured in minimum essential medium (MEM, Corning) with only 10% fetal bovine serum (FBS). Cultures were incubated at 37 °C under a humidified atmosphere containing 5% CO2. Cells were passaged using a solution containing 0.05% trypsin and 0.5 mM EDTA. All media and other ingredients were purchased from ALAB, Poland.
(§2) Since most of the studied compounds are insoluble in aqueous media (Dulbecco’s Modified Eagle’s Medium or minimum essential medium (MEM, Corning), therefore, they needed to be pre-dissolved in DMSO for biological tests. DMSO concentration was kept below 1% in each tested concentration of each compound. Cytotoxicity was assessed by MTT assay performed according to the protocols described previously in the following experimental approaches: 6 h + 24 h, 24 h + 24 h, and 72 h + 24 h. In brief, 5×10^3 per well (0.2 mL) in the two first approaches, while 1×10^4 cells in the case of longer incubation time were seeded in 96-well flat-bottom microtiter plate, were incubated with the tested complexes at various ranges of concentrations. After an appropriate incubation time of 6, 24, or 72 h, the cells were washed thee time with PBS and fresh medium was applied for a further 24 h in each approach. Various compound concentrations (dilutions in proper medium supplemented with 1% FBS) were tested in five replicates and repeated at least three times. Determined values of IC50 (concentration of a drug required to inhibit the growth of 50% of the cells) are given as mean + S.D. (Standard Deviation). IC50 values were determined, from the plots of cell viability in the presence of various concentrations of each compound by matching dose–response curves and using the Origin 9.0 software. Furthermore, post-treatment survival assessment of the treated cells was analyzed under an inverted fluorescence microscope (Olympus IC51, Japan) with an excitation filter 470/20 nm. For this, cells were stained with two versatile fluorescence dyes: fluorescein diacetate (FDA, 5 mg/mL) and propidium iodide (PI, 5 mg/mL) in standard conditions in the dark for 20 min. Before visualization, dyes were removed and cells were washed with PBS twice.

[3] = Partition coefficient, shake-flask method (n-octanol/PBS); assay type: physicochemical
Method: The partition coefficient was determined by the shake-flask method. A small amount of compound was dissolved in 5 mL PBS-saturated n-octanol. The sample was sonicated until all the compound was dissolved. Next, 5 mL of PBS saturated with n-octanol was added and the experiment proceeded as before. The resulting mixture was vortexed for 30 min in horizontal position. The sample was centrifuged for 2 min at 3700 rpm to obtain a phase separation. Next, 2 mL of each phase was taken. The next steps were a 5 min sonication and measurement of absorption spectra of the obtained solutions. The calibration curve was prepared in order to determine the concentration of the tested compounds in individual solutions. It was made using the absorption intensity of the compounds in series dilution solutions in PBS saturated with octanol or octanol saturated with PBS in the concentration range c = 1–100 nM.

[4] = tested on: A549 cells; assay: Cell cycle analysis by PI staining, flow cytometry; assay type: cell-based, human; conditions: synchronized A549, various concentrations, 24 h
Method: Antitumor drugs induce cell cycle arrest by inhibiting DNA synthesis and enhancing DNA damage, ultimately leading cancer cells to apoptosis. We further studied the influence of Ir(III) and Ru(II) complexes on cell cycle distribution. Synchronized A549 cells were treated with Ir(III) (1a, 2a) or Ru(II) (1b, 2b) at various concentrations for 24 h. Cells were stained with propidium iodide (PI) and analyzed by flow cytometry. […] An arrest in S-phase implies that the cell cannot duplicate its DNA. Other authors recently reported a similar effect for iridium(III)polypyridyl complexes. Moreover, the percentage of the G2/M population also increases. However, higher doses (>10 μM) of Ir(III) complexes can enhance G0/G1-phase arrest.
The serum starvation protocol was used to synchronize cell cultures. A549 cells were seeded in a 12-well plate in a growth medium with 20% FBS overnight. Then, the cultures were washed by PBS and changed to a serum-free medium. After serum starvation for 24 h, cells were released into the cell cycle by the addition of serum and tested compounds solution for 24 h. The cells were then detached from the plate using trypsin. […] Cells were analyzed with the Guava® easyCyte™ flow cytometer equipped with a 488 nm laser. The obtained data were analyzed using InCyte Software (MerckMillipore, Burlington, MA, USA).

[5] = Solubility (qualitative); assay type: physicochemical; conditions: H2O:DMSO (100:1)
[6] = tested on: HaCaT cells; assay: MTT cytotoxicity assay, HaCaT (non-cancer); assay type: cell-based, human; conditions: 48 h
[7] = tested on: PANC-1 cells; assay: MTT cytotoxicity assay, PANC-1; assay type: cell-based, human
Method: as §1, §2

With `CCN(CC)C[P+](c1ccccc1)(c1ccccc1)[Ir-3]([Cl])([Cl])[C]1(C)C(C)=C(C)C(C)=C1C` [1a, Ir(η^5-Cp*)Cl2Ph2PCH2N(CH2CH3)2] the penetration into cells [1] was “can penetrate A549 cells”, the subcellular localization [1] was “signal in whole (retain within the cytoplasm) cells with relative higher intensity in the nuclei” and the IC50 ([2]; 24 h) was 68 ± 5 µM. For the same compound, the IC50 ([2]; 72 h) was 12 ± 3 µM, the “Experimental LogP (logPo/w)” value [3] was 3.03 and the cell cycle perturbations [4] was “concentration-dependent cell cycle perturbations”. The “solubility in mixture of H2O:DMSO (100:1)” value [5] was “well soluble”, the IC50 [6] was 446 ± 26 µM and the IC50 ([7]; 24 h) was 143 ± 3 µM. It also gave an IC50 ([7]; 72 h) of 91 ± 13 µM.

In the case of “Ru(η^6-p-cymene)Cl2Ph2PCH2N(CH2CH3)2 [1b]”, the penetration into cells [1] is reported as “can penetrate A549 cells”, the subcellular localization [1] is reported as “localize mainly in nuclei” and the IC50 ([2]; 24 h) is reported as 59 ± 3 µM. For the same compound, the IC50 ([2]; 72 h) was 10 ± 1 µM, the “Experimental LogP (logPo/w)” value [3] was 3.1 and the cell cycle perturbations [4] was “concentration-dependent cell cycle perturbations”. For the same compound, the “solubility in mixture of H2O:DMSO (100:1)” value [5] was “well soluble”, the IC50 [6] was 545 ± 33 µM and the IC50 ([7]; 24 h) was 146 ± 5 µM. For the same compound, the IC50 ([7]; 72 h) was 128 ± 14 µM.

From article PMC8876511, “Two out of Three Musketeers Fight against Cancer: Synthesis, Physicochemical, and Biological Properties of Phosphino Cu^I, Ru^II, Ir^III Complexes” (Pharmaceuticals, 2022)
